Source: PubChem BioAssay AID248 (DTP/NCI, 2004)
Values joined by “and” are separate entries in the source; they are usually repeats but may differ in a detail not shown here. Equal values may be shown once. Inconclusive results and toxic doses are left out. No stated cut-off is given here; in the data, active means T/C of 150% or more; inactive means T/C below 125%.

Test system: L1210 leukemia ip in BDF1 mice, survival T/C
Test: NCI In Vivo Anticancer Drug Screen. Data for tumor model L1210 Leukemia (intraperitoneal) in B6D2F1 (BDF1) mice
Conditions: higher = longer survival
Procedure, shortened: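 In this screen, tumor-bearing mice given compound are compared to those given vehicle, and their survival values are reported as a treated-to-control quotient.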

[1] = endpoint: mean survival time, dose: 100.0 mg/kg/injection, schedule: Q04DX003 (ip), vehicle: saline
[2] = endpoint: mean survival time, dose: 100.0 mg/kg/injection, schedule: Q04DX003 (ip), vehicle: Klucel (hydroxypropylcellulose) (HPC)
[3] = endpoint: mean survival time, dose: 200.0 mg/kg/injection, schedule: Q04DX003 (ip), vehicle: Klucel (hydroxypropylcellulose) (HPC)
[4] = endpoint: mean survival time, dose: 50.0 mg/kg/injection, schedule: Q01DX001 (ip), vehicle: Klucel (hydroxypropylcellulose) (HPC)
[5] = endpoint: mean survival time, dose: 100.0 mg/kg/injection, schedule: Q01DX001 (ip), vehicle: Klucel (hydroxypropylcellulose) (HPC)
[6] = endpoint: mean survival time, dose: 100.0 mg/kg/injection, schedule: Q01DX001 (ip), vehicle: saline
[7] = endpoint: mean survival time, dose: 200.0 mg/kg/injection, schedule: Q01DX001 (ip), vehicle: saline
[8] = endpoint: mean survival time, dose: 400.0 mg/kg/injection, schedule: Q01DX001 (ip), vehicle: saline
[9] = endpoint: mean survival time, dose: 100.0 mg/kg/injection, schedule: Q01DX009 (ip), vehicle: Klucel (hydroxypropylcellulose) (HPC)
[10] = endpoint: mean survival time, dose: 200.0 mg/kg/injection, schedule: Q01DX009 (ip), vehicle: Klucel (hydroxypropylcellulose) (HPC)
[11] = endpoint: mean survival time, dose: 400.0 mg/kg/injection, schedule: Q01DX009 (ip), vehicle: Klucel (hydroxypropylcellulose) (HPC)
[12] = endpoint: mean survival time, dose: 100.0 mg/kg/injection, schedule: Q01DX001 (ip), vehicle: carboxymethylcellulose (CMC)
[13] = endpoint: mean survival time, dose: 200.0 mg/kg/injection, schedule: Q01DX001 (ip), vehicle: carboxymethylcellulose (CMC)
[14] = endpoint: mean survival time, dose: 400.0 mg/kg/injection, schedule: Q01DX001 (ip), vehicle: carboxymethylcellulose (CMC)

Measured: T/C

CCCCCOC(CN)C(Cl)(Cl)Cl (centres undefined)
inactive: endpoint: mean survival time, dose: 25.0 mg/kg/injection, schedule: Q01DX009 (ip), vehicle: saline 93 % of control | endpoint: mean survival time, dose: 50.0 mg/kg/injection, schedule: Q01DX009 (ip), vehicle: saline 97 % of control | [1] 91 % of control

O=C(O)CCCOc1ccc(Cl)cc1
inactive: endpoint: mean survival time, dose: 100.0 mg/kg/injection, schedule: Q04DX002 (ip), vehicle: Klucel (hydroxypropylcellulose) (HPC) 96 % of control | endpoint: mean survival time, dose: 200.0 mg/kg/injection, schedule: Q04DX002 (ip), vehicle: Klucel (hydroxypropylcellulose) (HPC) 101 % of control | endpoint: mean survival time, dose: 400.0 mg/kg/injection, schedule: Q04DX002 (ip), vehicle: Klucel (hydroxypropylcellulose) (HPC) 104 % of control

CCOc1ccc2c(c1)C(C)=CC(C)(C)N2
inactive: [2] 93 % of control | [3] 101 % of control | endpoint: mean survival time, dose: 400.0 mg/kg/injection, schedule: Q04DX003 (ip), vehicle: Klucel (hydroxypropylcellulose) (HPC) 121 % of control

O=C(O)/C=N/OCc1cc2c(cc1Cl)OCO2
inactive: endpoint: mean survival time, dose: 100.0 mg/kg/injection, schedule: Q04DX003 (ip), vehicle: saline sonified 95 % of control | endpoint: mean survival time, dose: 200.0 mg/kg/injection, schedule: Q04DX003 (ip), vehicle: saline sonified 92 % of control | endpoint: mean survival time, dose: 400.0 mg/kg/injection, schedule: Q04DX003 (ip), vehicle: saline sonified 94 % of control

C=CCSCCC=O
inactive: endpoint: mean survival time, dose: 25.0 mg/kg/injection, schedule: Q01DX001 (ip), vehicle: Klucel (hydroxypropylcellulose) (HPC) 100 % of control | [4] 102 % of control | [5] 102 % of control

c1ccc2c(c1)ccc1c3ccc4ccccc4c3[nH]c21
inactive: [6] 95 % of control | [7] 90 % of control | [8] 94 % of control

O=C(CNC(=O)Nc1nccs1)N/N=C/c1cccc([N+](=O)[O-])c1
inactive: [9] 97 % of control | [10] 100 % of control and 90 % of control | [11] 97 % of control

Cc1nc2ccccc2c(=O)n1NC(=O)c1cc([N+](=O)[O-])cc([N+](=O)[O-])c1
inactive: endpoint: mean survival time, dose: 100.0 mg/kg/injection, schedule: Q01DX009 (ip), vehicle: saline with Tween-80 90 % of control | endpoint: mean survival time, dose: 200.0 mg/kg/injection, schedule: Q01DX009 (ip), vehicle: saline with Tween-80 97 % of control | endpoint: mean survival time, dose: 400.0 mg/kg/injection, schedule: Q01DX009 (ip), vehicle: saline with Tween-80 93 % of control

COc1c(C)c2c(c(Br)c1N)COCO2
inactive: [4] 94 % of control | [5] 92 % of control | [2] 95 % of control | endpoint: mean survival time, dose: 200.0 mg/kg/injection, schedule: Q01DX001 (ip), vehicle: Klucel (hydroxypropylcellulose) (HPC) 94 % of control | [3] 97 % of control

S=C=NCc1ccc(Cl)cc1
inactive: endpoint: mean survival time, dose: 6.25 mg/kg/injection, schedule: Q01DX009 (ip), vehicle: Klucel (hydroxypropylcellulose) (HPC) 103 % of control | endpoint: mean survival time, dose: 12.5 mg/kg/injection, schedule: Q01DX009 (ip), vehicle: Klucel (hydroxypropylcellulose) (HPC) 92 % of control | endpoint: mean survival time, dose: 25.0 mg/kg/injection, schedule: Q01DX009 (ip), vehicle: Klucel (hydroxypropylcellulose) (HPC) 95 % of control

O=C(O)/C=C(\Cl)CC(=O)O
inactive: [6] 102 % of control | [7] 96 % of control

O=C(Nc1cccc(F)c1)OCc1ccco1
inactive: endpoint: mean survival time, dose: 100.0 mg/kg/injection, schedule: Q01DX009 (sc), vehicle: olive oil, sesame oil, peanut oil 95 % of control | endpoint: mean survival time, dose: 200.0 mg/kg/injection, schedule: Q01DX009 (sc), vehicle: olive oil, sesame oil, peanut oil 96 % of control | endpoint: mean survival time, dose: 400.0 mg/kg/injection, schedule: Q01DX009 (sc), vehicle: olive oil, sesame oil, peanut oil 95 % of control

COc1cccc(C(c2ccccc2)C(CC(=O)O)CC(=O)O)c1 (centres undefined)
inactive: endpoint: mean survival time, dose: 75.0 mg/kg/injection, schedule: Q04DX002 (ip), vehicle: Klucel (hydroxypropylcellulose) (HPC) 101 % of control | endpoint: mean survival time, dose: 150.0 mg/kg/injection, schedule: Q04DX002 (ip), vehicle: Klucel (hydroxypropylcellulose) (HPC) 108 % of control | endpoint: mean survival time, dose: 300.0 mg/kg/injection, schedule: Q04DX002 (ip), vehicle: Klucel (hydroxypropylcellulose) (HPC) 97 % of control

COc1ccc([N+](=O)[O-])cc1/C=C/C=O
inactive: [6] 100 % of control | [7] 92 % of control | [8] 100 % of control

Cc1cccc(C(=O)CC(O)(C(F)(F)F)C(F)(F)F)c1
inactive: endpoint: mean survival time, dose: 50.0 mg/kg/injection, schedule: Q04DX003 (ip), vehicle: saline with Tween-80 98 % of control | endpoint: mean survival time, dose: 100.0 mg/kg/injection, schedule: Q04DX003 (ip), vehicle: saline with Tween-80 100 % of control | endpoint: mean survival time, dose: 200.0 mg/kg/injection, schedule: Q04DX003 (ip), vehicle: saline with Tween-80 91 % of control | endpoint: mean survival time, dose: 400.0 mg/kg/injection, schedule: Q04DX003 (ip), vehicle: saline with Tween-80 102 % of control

COc1cccc2c1C(=O)c1c(O)c3c(c(O)c1C2=O)C[C@@](O)(C(C)=O)C[C@@H]3OC1CC(NC(C)=O)C(O)C(C)O1 (some centres undefined)
inactive: endpoint: mean survival time, dose: 0.63 mg/kg/injection, schedule: Q01DX001 (ip), vehicle: other 101 % of control | endpoint: mean survival time, dose: 1.25 mg/kg/injection, schedule: Q01DX001 (ip), vehicle: other 103 % of control | endpoint: mean survival time, dose: 1.9 mg/kg/injection, schedule: Q01DX009 (ip), vehicle: saline 103 % of control | endpoint: mean survival time, dose: 2.5 mg/kg/injection, schedule: Q01DX001 (ip), vehicle: other 107 % of control | endpoint: mean survival time, dose: 3.8 mg/kg/injection, schedule: Q01DX009 (ip), vehicle: saline 103 % of control | endpoint: mean survival time, dose: 5.0 mg/kg/injection, schedule: Q01DX001 (ip), vehicle: other 106 % of control | endpoint: mean survival time, dose: 7.5 mg/kg/injection, schedule: Q01DX009 (ip), vehicle: saline 111 % of control | endpoint: mean survival time, dose: 10.0 mg/kg/injection, schedule: Q01DX001 (ip), vehicle: other 111 % of control | endpoint: mean survival time, dose: 10.0 mg/kg/injection, schedule: Q01DX001 (ip), vehicle: saline 114 % of control | endpoint: mean survival time, dose: 20.0 mg/kg/injection, schedule: Q01DX001 (ip), vehicle: other 123 % of control | endpoint: mean survival time, dose: 20.0 mg/kg/injection, schedule: Q01DX001 (ip), vehicle: saline 111 % of control | endpoint: mean survival time, dose: 40.0 mg/kg/injection, schedule: Q01DX001 (ip), vehicle: other 122 % of control | endpoint: mean survival time, dose: 40.0 mg/kg/injection, schedule: Q01DX001 (ip), vehicle: saline 124 % of control | endpoint: mean survival time, dose: 160.0 mg/kg/injection, schedule: Q01DX001 (ip), vehicle: saline 122 % of control | endpoint: mean survival time, dose: 320.0 mg/kg/injection, schedule: Q01DX001 (ip), vehicle: saline 113 % of control | endpoint: median survival time, dose: 75.0 mg/kg/injection, schedule: Q01DX001 (ip), vehicle: propolene glycol 122 % of control and 124 % of control | endpoint: median survival time, dose: 400.0 mg/kg/injection, schedule: Q01DX001 (ip), vehicle: propolene glycol 98 % of control and 88 % of control

CN(C)/N=C\c1cccnc1
inactive: [1] 112 % of control | endpoint: mean survival time, dose: 200.0 mg/kg/injection, schedule: Q04DX003 (ip), vehicle: saline 86 % of control

CN(C)c1ccc2oc(=O)c3ccccc3c2c1
inactive: endpoint: mean survival time, dose: 50.0 mg/kg/injection, schedule: Q01DX001 (ip), vehicle: carboxymethylcellulose (CMC) 100 % of control | [12] 92 % of control | [13] 100 % of control | [14] 94 % of control

Nc1nc(Cl)c(N=Nc2ccccc2)c(=O)[nH]1
inactive: endpoint: mean survival time, dose: 25.0 mg/kg/injection, schedule: Q01DX009 (ip), vehicle: carboxymethylcellulose (CMC) 97 % of control and 98 % of control | endpoint: mean survival time, dose: 50.0 mg/kg/injection, schedule: Q01DX009 (ip), vehicle: carboxymethylcellulose (CMC) 93 % of control and 90 % of control | [12] 95 % of control and 102 % of control | endpoint: mean survival time, dose: 100.0 mg/kg/injection, schedule: Q04DX002 (ip), vehicle: carboxymethylcellulose (CMC) 97 % of control and 89 % of control | endpoint: mean survival time, dose: 100.0 mg/kg/injection, schedule: Q04DX003 (ip), vehicle: carboxymethylcellulose (CMC) 100 % of control and 108 % of control | [13] 98 % of control and 109 % of control | endpoint: mean survival time, dose: 200.0 mg/kg/injection, schedule: Q04DX002 (ip), vehicle: carboxymethylcellulose (CMC) 93 % of control | endpoint: mean survival time, dose: 200.0 mg/kg/injection, schedule: Q04DX003 (ip), vehicle: carboxymethylcellulose (CMC) 106 % of control and 113 % of control | [14] 95 % of control and 98 % of control | endpoint: mean survival time, dose: 400.0 mg/kg/injection, schedule: Q04DX002 (ip), vehicle: carboxymethylcellulose (CMC) 93 % of control and 98 % of control | endpoint: mean survival time, dose: 400.0 mg/kg/injection, schedule: Q04DX003 (ip), vehicle: carboxymethylcellulose (CMC) 100 % of control and 106 % of control

CC(=O)Nc1ccc(S(=O)(=O)N(C)Cc2ccccc2)cc1
inactive: [9] 94 % of control | [10] 102 % of control | [11] 107 % of control
